The subject of one experiment is MC38 tumors. Description: Subcutaneous MC38 tumors in syngeneic C57Bl/6 mice, HSP90i in drinking water. The experiment is classed as in vivo. On the procedure:
All experiments involving mice were performed under a protocol approved by the MIT Institutional Animal Care and Use Committee. MC38 cells growing in log phase were harvested by incubation with trypsin, washed 3× in PBS, and implanted (1×10^5 cells/site) into the right inguinal region of 6-8 week old female C57B16 mice (Jackson Labs). Once palpable, tumors were monitored every other day via digital caliper measurements and volume calculated using the following formula: Length (mm)×Width (mm)×Width (mm)×[…]=tumor volume in mm^3. Mice were euthanized by CO2 inhalation, tumors were harvested and cut into thirds with a razor for histology, flow cytometry, and flash freezing in liquid N2 for RNA/protein isolation.
For oral dosing with HSP90i, the average water consumption of the mice was calculated by measuring water bottle weight before and after 72 hours of housing to determine the average consumption per mouse, per day. Across all experiments, C57Cl/6 mice consumed approximately 4 mL every day. Using these water consumption values, and mouse weight, a 4 mg/mL stock solution of NVP-HSP990 (in 100% PEG400) was diluted directly into the drinking water to achieve a target dose of 0.5 mg/kg/day. HSP990 treatment was begun 72 hours prior to implantation of MC38 cells to allow the drug to reach steady state level prior to tumor challenge.
Histology For histological sectioning, tumor tissue was fixed in 10% buffered formalin for 24 hours prior to transfer to 70% EtOH for storage until paraffin-embedding, sectioning and mounting on glass slides. For CD3 and CD8 staining, slides were dewaxed, and antigen retrieval was performed in citrate buffer (10 mM Citric acid, pH=6.0) and pressure-cooked. Slides were then cooled and washed in PBS+0.1% Tween-20 (PBST). Endogenous peroxidase activity was then blocked with Dako Dual Enzyme Block (Agilent Technologies) and endogenous proteins were blocked with 2.5% goat serum in PBST. Slides were then incubated with primary anti-CD8 antibody (1:400) overnight at 4° C. or anti-CD3 antibody (1:500) for 1 hr at 25° C. After incubation with primary antibody, slides were washed 3× with PBST, and then incubated with HRP-conjugated secondary antibody for 30 min at […]. Slides were then washed 3× with PBST prior to development with DAB substrate for 3-5 min until positive staining was observed.
For CD8 and CD3 quantification, slides were scanned with a Leica High Resolution slide scanner and images imported into Aperio eSlide Manager. Two independent sections from each tumor were outlined and CD3/CD8+ cells were identified and quantified using the Nuclear-ID-v1 Algorithm. Individual tumor values are the average of the two tumor sections.
For analysis of MHC Class I on MC38 tumors, mice were sacrificed with by CO2 inhalation, tumor tissue quickly dissected and placed on ice until processing by thorough mincing with a razor and filtration through a 70 μm cell strainer. Cells were then stained with H2-Kb antibody (1:400) or isotype control as described for cultured cells.
For analysis of tissues, samples (2.5-5.0 mm^3) were homogenized in 1 mL of Trizol (Molecular Research Center), phase separated with 200 μL chloroform, and precipitated with 100% isopropanol prior to resuspension in MilliQ H2O and quantification with Nanodrop. RNA was then processed as described above for qRT-PCR.

Experiment [1] concerns Ctrl and B2m KO MC38 cells. The experiment can be described thus: Viability of Ctrl and B2m KO MC38 cells in culture, dye reduction assay. It is filed as cell-based, mouse. To be noted: 2-day exposure to increasing concentrations. The source says: FIGS. 6A-B are graphs showing anti-tumor activity of low-dose HSP90i is dependent on functional MHC Class I expression. Ctrl or B2m KO cells were generated by CRISPR-Cas9 mediated gene editing, and B2m KO cells were confirmed to no longer express MHC-I on the cell surface. FIG. 6A is a line graph showing relative number of viable Ctrl and B2m KO cells measured by standard dye reduction assay following 2-day exposure to increasing concentrations of HSP90i; FIG. 6B is a line graph showing size in mm^3 of Ctrl or B2m KO MC38 tumors in mice treated with vehicle (Veh, solid lines) or 0.5 mg/kg/day HSP90i (dotted lines) over 25 days post implantation.
For CRISPR/Cas9-mediated disruption of B2m, pSpCas9-P2A-GFP plasmid (Addgene #48138) was modified with a control sgRNA sequence ([…]) or an sgRNA targeting B2m ([…]). Log phase MC38 cells were transfected with Ctrl or B2m plasmids using Lipofectamine 2000 (Invitrogen) according to manufacturer's instructions. 24 hours later, single GFP positive cells were sorted into 96-well plates to isolate individual MC38 clones with the desired modification. After 2 weeks, isolated clones were tested by western blot to confirm loss of B2m expression. Ctrl and B2m clones were then passaged through syngeneic mice (C57/B16) to increase the uniformity of tumor establishment and progression in subsequent experiments.

The test system of experiment [2] is SUM159, SKMEL, H838 cells. Description: Flow cytometry of MHC Class I on human tumor cell lines SUM159, SKMEL, H838. The experiment is classed as cell-based. To be noted: low dose, 72 hours. On the procedure:
FIGS. 4A-4F are graphs showing low dose administration of HSP90i stimulates antigen presentation of tumor cells. […] FIG. 4C is a line graph showing relative MC38 cell number following exposure to increasing concentrations of Hsp90i; Live cell number was assessed with a standard metabolic dye-based (Alamar blue) assay and cell mass assessed by protein content using sulphorhodamine-B (SRB) assay. Representative histograms showing flow cytometric measurement of relative MHC Class I expression on the surface of triple-negative breast cancer (SUM159) (FIG. 4D), melanoma (SKMEL) (FIG. 4E), and lung adenocarcinoma (H838) (FIG. 4F) cells treated with DMSO (Veh) or low dose HSP990 for 72 hours.
MC38 cells were kindly provided by A. Sharpe from Dana Farber Cancer Institute. Cells were maintained in DMEM supplemented with 10% FBS and penicillin/streptomycin. SUM159, H838, SKMEL, and Colo cells were maintained in RPMI1640 supplemented with 10% FBS and penicillin/streptomycin. Cells were confirmed negative for mycoplasma contamination by PCR-based assay. […] Fluorescence as a measure of relative dye reduction was measured on an Envision plate reader (Perkin Elmer) with excitation at 544 nm and emission readings at 570 nm.
For analysis of MHC Class I surface expression, cells were seeded into 12 well plates (125,000/well). […] Cytometric data were plotted and analyzed with FloJo.
(In general: Flow cytometry measures light scatter and fluorescence of single cells or particles in a stream.)

Setting [3] is: 0.5 mg/kg/day in drinking water, 18 days post implantation, C57Bl/6.

Consider `COc1cccc(-c2cc(F)ccc2[C@H]2Cc3nc(N)nc(C)c3C(=O)N2)n1` [NVP-HSP990], for which, in the experiment with MC38 tumors (setting [3]), the “reduction in tumor mass” value is on record as “greater than 50%” and the “reduction in tumor volume” value is reported as “greater than 50%”. For the same compound, the “heat-shock response in tumors (qRT-PCR)” value in the experiment with MC38 tumors (continuous low-dose administration) is “does not induce a heat-shock response”. In addition, the “immune gene expression in MC38 tumor tissue (Nanostring)” value with MC38 tumors (low dose exposure) is reported as “did not result in broad downregulation in immune gene expression”. Further, in the experiment with MC38 tumors (treated versus control mice), the “total number of CD3+ or CD8+ T-cells in the tumors” value is “no significant difference”. Further, in the experiment with MC38 tumors (tumors from treated mice versus vehicle), the “MHC Class I expression on the surface of dissociated MC38 tumor cells” value was “higher levels of MHC Class I expression”. The “sensitivity of Ctrl versus B2m KO MC38 cells in culture” value in experiment [1] is recorded as “no difference in sensitivity”. For the same compound, the “MHC Class I expression on human tumor cell lines from breast, melanocytes and lung” value in experiment [2] is listed as “induced upregulation of MHC Class I expression”.

The record behind these values is US20190365719A1, “COMBINATION TREATMENTS OF HSP90 INHIBITORS FOR ENHANCING TUMOR IMMUNOGENICITY AND METHODS OF USE THEREOF” (Massachusetts Institute of Technology, priority 2018, published 2019).
